This is an account of results in patent US20120238554A1, “SALTS OF POTASSIUM ATP CHANNEL OPENERS AND USES THEREOF” (priority 2007, published 2012).

A short description of data set [1]: Bioavailability of diazoxide choline and related molecules. The following applies: male mice; for AUC0-6 / Cmax: Oral gavage, single 50 mg/kg dose; for Relative oral bioavail.: ratio of AUC0-6 to that of the IV dose of diazoxide choline.
Method: The study used 4 mice dosed per treatment arm. Following, a single intravenous or oral dose, administered by gavage, pharmacokinetic samples were collected at 4 time points: 0.5, 1, 3, and 6 hours post-dosing. Two mice were sampled at each timepoint, with each mouse contributing samples to two timepoints. Each test drug was administered as a 50 mg/kg dose, which yields nearly equal molar concentrations. […] Blood samples were collected into tubes containing dipotassium EDTA as the anticoagulant and placed on ice packs until centrifugation (at 3000 rpm for 10 minutes at 4° C.). After centrifugation, samples were stored at −70° C. until they were thawed for analysis. Circulating drug levels were measured using a precise and reproducible LC-MS/MS assay.
A short description of data set [2]: Form conversion and degradation under thermal stress (60° C.). The following applies: for Thermal: 7 days. The method, then: Studies were also conducted to evaluate the likelihood for conversion and degradation under thermal stress.
Data set [3] can be described thus: Slurry studies of inter-conversion of the solid form. Conditions: room temperature.
Data set [4] in a line: Moisture sorption analysis. Format: physicochemical. The method, then:
Moisture Sorption Analysis was performed with a Hiden IGAsorp Moisture Sorption Instrument, Samples were first dried at 0% relative humidity at 25° C. until an equilibrium weight was reached, or for a maximum of 4 hours. Samples were then subjected to an isothermal (25° C.) scan from 10-90% relative humidity in steps of 10%. The samples were allowed to equilibrate to an asymptotic weight at each point for a maximum of 4 hours. Following absorption, a desorption scan from […] relative humidity (at 25° C.) was run in steps of −10%, again allowing a maximum of 4 hours for the samples to equilibrate. The resulting samples after desorption were dried at 80° C. for two hours and analyzed by XRPD.

A short description of data set [5]: Solubility screen in organic solvents.
Data set [6] is described as follows: Polymorph screening crystallizations and characterization of forms (XRPD, DSC, TGA). The following applies: for TGA: data indicates a half-molar equivalent of acetone, water, or dioxane for Forms C, D, F. The format is physicochemical. Here is the method: DSC analysis were conducted with a Mettler 822 DSC, by measuring the amount of energy released by a sample, as the sample was heated from 30° C. to between 300-500° C. at a rate of 10° C./min. Typical applications of DSC analysis include determination of melting point temperature and the heat of melting; measurement of the glass transition temperature; curing and crystallization studies; and identification of phase transformations.
TGA measurements were conducted with a Mettler 851 SDTA/TGA, by measuring weight loss as a function of increasing temperature, as the samples were heated from 30° C. to 230° C. at a rate of 10° C./min. The TCA can be used to analyze desorption and decomposition behavior, characterize oxidation behavior, set burnout or conditioning parameters (temperature/ramp rate/time), and determine chemical composition.
XRPD samples were analyzed with a Shimadzu XRD-6000 system, using a Cu Kα, 40 kV, 40 mA X-ray tube. The divergence and scatter slits were 1.00 deg, and the receiving slit was 0.30 mm. Samples were continuously scanned at a range of 3.0-45.0 deg, with a step size of 0.04 deg., at a scan rate of 2 deg/min.
After hot filtration the vials were placed in a refrigerator (4° C.) for 16 hours. […] All solids were dried in vacuo at ambient temperature and 30 in. Hg.
After hot filtration the vials were then slowly cooled to room temperature at the rate of 20° C./h and stirred at room temperature for 1-2 hours. All solids were dried in vacuo at ambient temperature and 30 in. Hg.
Solvents for crystallizations were chosen based on the solubility screen summarized below.

Where [7] appears, read: 60° C., closed, protected from light, 7 and 14 days.
[8] abbreviates: 50/50 mixtures of potassium salt Forms C, D, F, ethyl acetate, acetonitrile, isopropanol.

As usually defined, the Cmax is the maximum level reached in the sampled fluid or tissue. Broadly, the solubility is how much of the substance goes into solution per volume. Lower therefore signals a poorly soluble substance.

Entries after “also recorded” stand apart in the source; their conditions may differ. Structures can show the parent of a compound that is named as a salt. Where two headings read alike, the source gives them in different places. Marks after values point to notes of the source that are not given here. Where only a bound is given, the exact number is not on record here.

Regarding `O=S1(=O)N=C(NC2CCC2)Nc2ccc(F)cc21`, in data set [1], the AUC0-6 worked out at 89 ± 16 ng·h/mL, the Cmax was found to be 0.024 ± 0.01 µg/mL and the Relative oral bioavail. is given as 0.06%.
On the same counts, the results for `CC(C)NC1=NS(=O)(=O)c2cc(Cl)c(F)cc2N1` are 313 ± 15 ng·h/mL, 0.08 ± 0.012 µg/mL and 0.2%.
Regarding `CC1=Nc2ccc(Cl)cc2S(=O)(=O)[N-]1.C[N+](C)(C)CCO` [diazoxide choline salt Form B], the “form conversion and degradation under thermal stress (XRPD, DSC)” value (from here on “form conversion and degradation”) in data set [2] was “Stable after 14 days at”. For the same compound, in data set [3] (7 and 14 days, n-heptane, dichloromethane, toluene (Table 16 Form B: CH2Cl2, THF, t-AmOH), listed as Form B), the “inter-conversion of the solid form in slurry” value (“inter-conversion” below) was “form conversion was not observed; also recorded: Stable after 14 days in”. Moreover, the “Moisture Sorption (hygroscopicity)” value in data set [4] (25° C., listed as Form B) is reported as “hygroscopic; also recorded: Hygroscopic -”. This compound registered a water absorbed in data set [4] (60% RH, 25° C., listed as Form B) of 7.4 wt %. For the same compound, the moisture absorbed entry in data set [4] (70% relative humidity, 25° C.) was “over 14.5%”. The “crystalline form after moisture sorption/desorption (XRPD)” value in data set [4] (listed as Form B) is reported as “remained in the Form B crystal structure”.
Consider `COc1ccc2c(c1)NC(NC(C)C)=NS2(=O)=O`, for which, in data set [1], the AUC0-6 came to 3590 ng·h/mL, the Cmax turned out to be 1.56 µg/mL and the Relative oral bioavail. amounted to 2.6%.
For the compound `O=S1(=O)N=C(NC2CCC2)Nc2ccc(Br)cc21`, in data set [1], the AUC0-6 turned out to be 800 ± 126 ng·h/mL, the maximum concentration (Cmax) was determined as 0.181 ± 0.016 µg/mL and the Relative oral bioavail. is given as 0.6%.
In the case of `CC1=Nc2ccc(Cl)cc2S(=O)(=O)[N-]1.C[N+](C)(C)CCO` [diazoxide choline salt Form A], in data set [2], the “form conversion and degradation” value was “Started to convert to Form”. Moreover, in data set [3] (7 and 14 days, n-heptane, dichloromethane, toluene (Table 16 Form B: CH2Cl2, THF, t-AmOH), listed as Form A), the “inter-conversion” value is reported as “conversion to Form B was observed after seven days; also recorded: readily converted to Form B; also recorded: Converted to Form B after 7”. Moreover, the “Moisture Sorption (hygroscopicity)” value in data set [4] (25° C., listed as Form A) was “Hygroscopic - deliquesced”. In addition, the water absorbed in data set [4] (60% RH, 25° C., listed as Form A) amounted to 2.4 wt %. In addition, in data set [4] (listed as Form A), the “crystalline form after moisture sorption/desorption (XRPD)” value was “consistent with Form A”.
As to `CC1=NS(=O)(=O)c2cc(Cl)ccc2N1` [Diazoxide Potassium Salt], the Soluble entry is reported as “Yes” in data set [5] (Acetone, 0.40 mg/mL, 55 ° C.); “No” in data set [5] (CH2Cl2, […], 55 ° C.); “Yes” in data set [5] (DMF, >6.40 mg/mL, rt); “No” in data set [5] (Dioxane, […], 55 ° C.); “No” in data set [5] (EtOAc, […], 55 ° C.); “Yes” in data set [5] (EtOH, […], 55 ° C.). Further, the Soluble result is on record as “No” in data set [5] (Heptane, 0.24 mg/mL, 55 ° C.); “Yes” in data set [5] (IPA, […], 55 ° C.); “No” in data set [5] (IPAc, […], 55 ° C.); “Partially” in data set [5] (MEK, 0.30 mg/mL, 55 ° C.); “No” in data set [5] (MTBE, […], 55 ° C.); “Yes” in data set [5] (MeCN, 0.85 mg/mL, 55 ° C.). Also, the Soluble entry was “Yes” in data set [5] (MeOH, 6.00 mg/mL, 55 ° C.); “Partially” in data set [5] (THF, […], 55 ° C.); “No” in data set [5] (Toluene, […], 55 ° C.); “No” in data set [5] (Water, 0.30 mg/mL, 55 ° C.); “No” in data set [5] (c-Hexane, 0.30 mg/mL, 55 ° C.). The Conc. was 260 µg/mL in data set [5] (CH2Cl2, 55 ° C.); greater than 6400 µg/mL in data set [5] (DMF, rt); 280 µg/mL in data set [5] (Dioxane, 55 ° C.); 360 µg/mL in data set [5] (EtOAc, 55 ° C.); 2930 µg/mL in data set [5] (EtOH, 55 ° C.); 240 µg/mL in data set [5] (Heptane, 55 ° C.). In addition, the Conc. in data set [5] (IPA, 55 ° C.) came to 2100 µg/mL; in data set [5] (IPAc, 55 ° C.), 340 µg/mL; in data set [5] (MEK, 55 ° C.), 300 µg/mL; in data set [5] (MTBE, 55 ° C.) it was 360 µg/mL; in data set [5] (MeCN, 55 ° C.) it was 850 µg/mL; in data set [5] (MeOH, 55 ° C.) it was 6000 µg/mL. Further, the Conc. in data set [5] (THF, 55 ° C.) was 360 µg/mL; in data set [5] (Toluene, 55 ° C.), 280 µg/mL; in data set [5] (c-Hexane, 55 ° C.), 300 µg/mL. This compound also returned a solubility in data set [5] (water, 55 °C) of 300 µg/mL.
As to `CC1=NS(=O)(=O)c2cc(Cl)ccc2[N-]1.[K+]` [Diazoxide potassium Form C], in data set [2], the Thermal result is “Stable (7 days)”. For the same compound, in data set [6], the XRPD entry is “Crystalline” and the TGA came out at 8.4%**. In data set [4], the “Moisture Sorption” value is listed as “Hygroscopic -” and the “Moisture Sorption: deliquesced at” value was “deliquesced at 90% RH”.
Take `CC(C)=O.CC1=NS(=O)(=O)c2cc(Cl)ccc2[N-]1.CC1=NS(=O)(=O)c2cc(Cl)ccc2[N-]1.[K+].[K+]` [diazoxide potassium salt Form C]: the “form conversion and degradation” value in data set [2] (setting [7]) is reported as “stable”. Further, the “inter-conversion” value in data set [3] (setting [8]) was “readily converted to Form D; also recorded: conversion to Form D was observed in all solvents”. Also, the “crystalline form after moisture sorption/desorption (XRPD)” value in data set [4] is reported as “consistent with Form D”. The “Moisture Sorption (hygroscopicity)” value in data set [4] (25° C.) is reported as “hygroscopic”. The water absorbed entry in data set [4] (90% RH, 25° C.) is given as “approximately 47 wt %”.
For the compound `CC1=NS(=O)(=O)c2cc(Cl)ccc2[N-]1.[K+]` [Diazoxide potassium Form F], in data set [2], the Thermal result is “Stable (7 days)”. For the same compound, in data set [6], the XRPD result was “Crystalline” and the TGA amounted to 13.1%**.
With `C1COCCO1.CC1=NS(=O)(=O)c2cc(Cl)ccc2[N-]1.CC1=NS(=O)(=O)c2cc(Cl)ccc2[N-]1.[K+].[K+]` [diazoxide potassium salt Form F], the “inter-conversion” value in data set [3] (setting [8]) is “readily converted to Form D; also recorded: conversion to Form D was observed in all solvents”. The “crystalline form after moisture sorption/desorption (XRPD)” value in data set [4] is “consistent with Form D”. In addition, the “Moisture Sorption (hygroscopicity)” value in data set [4] (25° C.) is “hygroscopic”. The compound further registered a water absorbed in data set [4] (90% RH, 25° C.) of roughly 22 wt %.
In the case of `CC1=NS(=O)(=O)c2cc(Cl)ccc2[N-]1.[K+]` [Diazoxide potassium Form D], the Thermal entry in data set [2] is listed as “Stable (7 days)”. In addition, in data set [6], the XRPD entry is “Crystalline” and the TGA was determined as 4.5%**. In addition, in data set [4], the “Moisture Sorption” value is “Hygroscopic -” and the “Moisture Sorption: deliquesced at” value is “deliquesced at 90% RH”.
Regarding `CC1=NS(=O)(=O)c2cc(Cl)ccc2[N-]1.[Na+]` [sodium salt of diazoxide], in data set [2] (setting [7]), the “form conversion and degradation” value is recorded as “little propensity to change form or degrade”. Besides, the “inter-conversion” value in data set [3] (7 and 14 days, n-heptane, dichloromethane, toluene (Table 16 Form B: CH2Cl2, THF, t-AmOH)) is given as “no propensity of inter-conversion”. In addition, the “Moisture Sorption (hygroscopicity)” value in data set [4] (25° C.) is on record as “hygroscopic”; in data set [4] (25° C., listed as Sodium diazoxide salt) it was “deliquescent -”. Also, the “hydrate formation (hysteresis upon desorption)” value in data set [4] (25° C.) is given as “possible hydrate formation”. For the same compound, the water absorbed in data set [4] (60% RH, 25° C.) was determined as 1.2 wt %; in data set [4] (80% RH, 25° C.), 6.6 wt %.
Regarding `CC1=NS(=O)(=O)c2cc(Cl)ccc2[N-]1.CC1=NS(=O)(=O)c2cc(Cl)ccc2[N-]1.O.[K+].[K+]` [diazoxide potassium salt Form D], the “inter-conversion” value in data set [3] (setting [8]) was “conversion to Form D was observed in all solvents”. Moreover, in data set [4], the “crystalline form after moisture sorption/desorption (XRPD)” value is listed as “consistent with Form D”. Further, the “Moisture Sorption (hygroscopicity)” value in data set [4] (25° C.) is given as “hygroscopic”.
